Each structure is given as a SMILES string.

The Km is the concentration of substrate that gives half-maximal velocity.

In assay [1] the target is T1, AtPORC (Arabidopsis thaliana, UniProt O48741).
T1 construct: gene PORC
T1 sequence (O48741 68-401): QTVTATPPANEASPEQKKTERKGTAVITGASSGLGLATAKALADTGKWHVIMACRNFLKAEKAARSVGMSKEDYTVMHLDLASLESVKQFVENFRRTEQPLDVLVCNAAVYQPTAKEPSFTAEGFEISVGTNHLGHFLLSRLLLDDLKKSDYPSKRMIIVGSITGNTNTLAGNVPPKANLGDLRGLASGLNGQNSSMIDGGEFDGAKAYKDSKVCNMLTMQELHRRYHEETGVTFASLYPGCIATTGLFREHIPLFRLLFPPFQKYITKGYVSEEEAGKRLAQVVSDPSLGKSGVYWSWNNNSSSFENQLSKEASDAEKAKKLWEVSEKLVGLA
Put plainly: biochemical. Conditions: 400 uM OPT lipids, 5 uM Pchlide, 15 uM LPOR. The protocol: (Figs. 3A, S2). […] The resulting plots resembled saturation curves, to which a hyperbolic function similar to the Michaelis–Menten equation could be fitted (Figs. 3B, S3, Materials and Methods). […] However, KM^L values were consistently lower than KM^D values. […] The addition of 400 μM OPT lipids lowered the KM^D constant for all isoforms, except for SlPOR1, SlPOR3, HaPOR1, HaPOR2, and PeaPOR, where the constant remained unchanged within error estimates. […] Shaded areas represent the SD between replicates. […] A fit of a modified Michaelis–Menten equation is shown, along with the graphical representation of KM^D (B) or KM^L (C). Spectra corresponding to the given F648/F635 values (B) or F Chlide/F Pchlide values (C) are shown on the right side of the plot. D, relationship between KM^D and KM^L for investigated isoforms. The overall distribution of data points is shown in gray. Error bars represent the uncertainty associated with the fitted constant KM^x. Closed symbols represent constants determined for samples not supplemented with lipids, while open symbols these determined in the presence of 400 μM OPT lipids. LPOR, light-dependent protochlorophyllide oxidoreductase; Pchlide, protochlorophyllide; Chlide, chlorophyllide.

Another assay has as its target T2, AtPORA (Arabidopsis thaliana, UniProt Q42536).
T2 construct: gene PORA
T2 sequence (Q42536 70-405): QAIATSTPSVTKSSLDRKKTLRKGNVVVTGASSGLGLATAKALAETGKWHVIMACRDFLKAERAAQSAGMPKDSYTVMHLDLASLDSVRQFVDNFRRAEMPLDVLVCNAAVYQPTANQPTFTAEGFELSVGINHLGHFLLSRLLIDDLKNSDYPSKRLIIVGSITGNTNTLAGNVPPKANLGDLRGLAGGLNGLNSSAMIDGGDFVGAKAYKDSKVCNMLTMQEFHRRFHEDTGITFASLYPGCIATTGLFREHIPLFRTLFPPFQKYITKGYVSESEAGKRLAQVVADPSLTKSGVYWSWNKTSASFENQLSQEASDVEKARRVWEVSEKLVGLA
The note with it: 400 uM OPT lipids; substrate; read-out: illuminated, 400 uM OPT, KM^L. The text has this: (§1) All samples were thawed in darkness, illuminated for 20 s to initiate the reaction, and then frozen again and remeasured. […] These plots also resembled saturation curves, to which a hyperbolic function similar to the modified Michaelis–Menten equation could be fitted (Figs. 3C, S5, Materials and Methods).

A further assay deals with T3, AtPORB (Arabidopsis thaliana, UniProt P21218).
T3 construct: gene PORB
T3 sequence (P21218 67-401): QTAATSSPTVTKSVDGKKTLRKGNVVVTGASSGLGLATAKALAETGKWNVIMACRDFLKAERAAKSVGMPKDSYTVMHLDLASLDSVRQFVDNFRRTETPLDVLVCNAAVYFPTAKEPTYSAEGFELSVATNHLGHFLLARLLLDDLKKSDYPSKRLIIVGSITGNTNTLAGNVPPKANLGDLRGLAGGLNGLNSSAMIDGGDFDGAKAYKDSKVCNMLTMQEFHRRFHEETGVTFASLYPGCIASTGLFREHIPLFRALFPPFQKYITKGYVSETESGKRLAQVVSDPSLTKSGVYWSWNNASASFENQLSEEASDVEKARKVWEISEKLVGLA
The note with it: 400 uM OPT lipids; substrate; read-out: illuminated, 400 uM OPT, KM^L.
Description: as §1

The target of assay [2] is T1, AtPORC. Conditions: 400 uM OPT lipids; substrate; read-out: illuminated, 400 uM OPT, KM^L.
Description: as §1

For the next assay, the target named is T4, TaPOR1 (Triticum aestivum, UniProt Q41578).
T4 construct: gene PORA
T4 sequence (Q41578 75-388): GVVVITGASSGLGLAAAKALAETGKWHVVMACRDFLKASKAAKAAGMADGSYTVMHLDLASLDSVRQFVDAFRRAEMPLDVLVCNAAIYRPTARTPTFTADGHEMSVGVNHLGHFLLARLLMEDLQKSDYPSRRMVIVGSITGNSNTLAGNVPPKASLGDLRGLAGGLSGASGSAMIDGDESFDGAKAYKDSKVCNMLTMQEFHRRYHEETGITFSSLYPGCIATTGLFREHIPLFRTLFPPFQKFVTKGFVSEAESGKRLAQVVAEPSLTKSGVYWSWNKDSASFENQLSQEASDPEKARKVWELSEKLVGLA
The note with it: 400 uM OPT lipids; substrate; read-out: illuminated, 400 uM OPT, KM^L.
Description: as §1

A further assay has as its target T5, TaPOR2 (Triticum aestivum, UniProt A0A3B5XZQ9).
T5 construct: gene LOC123047424
T5 sequence (A0A3B5XZQ9 60-395): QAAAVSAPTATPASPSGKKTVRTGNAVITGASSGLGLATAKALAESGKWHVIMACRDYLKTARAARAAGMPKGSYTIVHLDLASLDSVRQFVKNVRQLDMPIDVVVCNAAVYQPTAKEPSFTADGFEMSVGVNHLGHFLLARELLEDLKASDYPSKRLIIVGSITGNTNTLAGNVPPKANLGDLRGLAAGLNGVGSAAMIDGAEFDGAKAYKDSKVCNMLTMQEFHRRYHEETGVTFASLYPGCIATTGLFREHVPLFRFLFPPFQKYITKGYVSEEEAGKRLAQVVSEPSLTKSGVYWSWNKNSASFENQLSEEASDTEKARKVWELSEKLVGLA
The note with it: 400 uM OPT lipids; substrate; read-out: illuminated, 400 uM OPT, KM^L.
Description: as §1

In the case of `NC(=O)C1=CN([C@@H]2O[C@H](COP(=O)(O)OP(=O)(O)OC[C@H]3O[C@@H](n4cnc5c(N)ncnc54)[C@H](OP(=O)(O)O)[C@@H]3O)[C@@H](O)[C@H]2O)C=CC1` [NADPH], the Michaelis-like constant in the dark (KM^D) at AtPORC [1] came out at 0.8 µM. The Km on AtPORA amounted to 2.5 µM; on AtPORB, 1.3 µM; on AtPORC [2] it was 0.7 µM; on TaPOR1, 39.7 µM; at TaPOR2, 6.1 µM.
